Data on 23 compounds can be found in patent US11802120B2, “Fused cyclic urea derivatives as CRHR2 antagonist” (RaQualia Pharma Inc., priority 2018, dated 2023).

This assay deals with T1, human CRHR2-alpha (Homo sapiens, UniProt Q13324).
T1 sequence (Q13324 1-411): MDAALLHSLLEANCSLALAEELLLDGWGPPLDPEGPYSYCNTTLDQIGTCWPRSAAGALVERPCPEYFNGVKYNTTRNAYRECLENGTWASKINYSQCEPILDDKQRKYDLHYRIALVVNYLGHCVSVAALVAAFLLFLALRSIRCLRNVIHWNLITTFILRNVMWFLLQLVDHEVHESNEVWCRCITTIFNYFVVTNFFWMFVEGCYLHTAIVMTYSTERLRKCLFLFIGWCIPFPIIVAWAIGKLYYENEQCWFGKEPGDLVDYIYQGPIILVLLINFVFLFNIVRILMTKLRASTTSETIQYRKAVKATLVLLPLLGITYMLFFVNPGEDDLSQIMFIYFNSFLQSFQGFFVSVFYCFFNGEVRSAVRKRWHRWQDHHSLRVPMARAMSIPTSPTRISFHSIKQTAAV
Kind of assay: cAMP functional assay for human CRHR2 (LANCE Ultra cAMP, TR-FRET). The format is cell-based. The conditions noted are these: CHO-K1 cells expressing human CRHR2-alpha, agonist human urocortin2 at EC80, cAMP; read-out: IC50 against CRHR2. An outline of the steps:
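CHO-K1 stable lines; 4,000 cells/well; compound 30 min, 25° C; EC80 agonist (human urocortin2 → CRHR2, CRF → CRHR1) 30 min, 25° C; buffer HBSS/0.1% BSA/0.5 mM IBMX/5 mM Hepes pH 7.4; Eu-cAMP tracer + ULight antibody 60 min; TR-FRET read; IC50 from % inhibition curves.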
Usually IC50 stands for the concentration at which inhibition is half-maximal. Consider `Cc1ncc(Cl)cc1C(=O)N[C@H]1CC[C@H](Cn2c(=O)n(-c3ccc4cccnc4c3)c3ccccc32)CC1` [Example 395, 5-chloro-2-methyl-N-((1r,4r)-4-((2-oxo-3-(quinolin-7-yl)-2,3-dihydro-1H-benzo[d]imidazol-1-yl)methyl)cyclo-hexyl)nicotinamide], for which the IC50 was < 300 nM.

Take `Cc1ncc(Cl)cc1C(=O)N[C@H]1CC[C@H](Cn2c(=O)n(-c3ccc4ccncc4c3)c3ccccc32)CC1` [Example 396, 5-chloro-N-((1r,4r)-4-((3-(isoquinolin-7-yl)-2-oxo-2,3-dihydro-1H-benzo[d]imidazol-1-yl)methyl)cyclohexyl)-2-methyl-nicotinamide]: the IC50 is < 300 nM.

For `O=C(N[C@H]1CC[C@H](Cn2c(=O)n(-c3ccc4cnccc4c3)c3ccccc32)CC1)c1cc(Cl)cnc1C(F)F` [Example 397, 5-chloro-2-(difluoromethyl)-N-((1r,4r)-4-((3-(isoquinolin-6-yl)-2-oxo-2,3-dihydro-1H-benzo[d]imidazol-1-yl)methyl)cyclohexyl)nicotinamide], the IC50 is < 300 nM.

In the case of `O=C(N[C@H]1CC[C@H](Cn2c(=O)n(-c3ccc4cnccc4c3)c3ccccc32)CC1)c1cc(Cl)cnc1C(F)(F)F` [Example 398, 5-chloro-N-((1r,4r)-4-((3-(isoquinolin-6-yl)-2-oxo-2,3-dihydro-1H-benzo[d]imidazol-1-yl)methyl)cyclohexyl)-2-(trifluoromethyl)nicotinamide], the IC50 is < 300 nM.

Turning to `COc1cc(-n2c(=O)n(C[C@H]3CC[C@H](NC(=O)c4cc(Cl)cnc4C(F)F)CC3)c3cccnc32)ccc1F` [Example 399, 5-chloro-2-(difluoromethyl)-N-((1r,4r)-4-((3-(4-fluoro-3-methoxyphenyl)-2-oxo-2,3-dihydro-1H-imidazo[4,5-b]pyridin-1-yl)methyl)cyclo-hexyl)nicotinamide], the IC50 is < 300 nM.

For the compound `CC(=O)c1ccc(-n2c(=O)n(C[C@H]3CC[C@H](NC(=O)c4cc(Cl)cnc4C(F)F)CC3)c3cccnc32)cc1` [Example 400, N-((1r,4r)-4-((3-(4-acetylphenyl)-2-oxo-2,3-dihydro-1H-imidazo [4,5-b]pyridin-1-yl)methyl)cyclo-hexyl)-5-chloro-2-(difluoro-methyl)nicotinamide], the IC50 is < 300 nM.

As for `COc1ccc(-n2c(=O)n(C[C@H]3CC[C@H](NC(=O)c4cc(Cl)cnc4C)CC3)c3cccnc32)cc1OC1CCCC1` [Example 401, 5-chloro-N-((1r,4r)-4-((3-(3-(cyclopentyloxy)-4-methoxy-phenyl)-2-oxo-2,3-dihydro-1H-imidazo[4,5-b]pyridin-1-yl)methyl)cyclohexyl)-2-methylnicotinamide], the IC50 is < 300 nM.

For `CCOc1ccc(-n2c(=O)n(C[C@H]3CC[C@H](NC(=O)c4cc(Cl)cnc4C)CC3)c3cccnc32)cc1` [Example 402, 5-chloro-N-((1r,4r)-4-((3-(4-ethoxyphenyl)-2-oxo-2,3-dihydro-1H-imidazo[4,5-b]pyridin-1-yl)methyl)cyclo-hexyl)-2-methylnicotinamide], the half-inhibitory concentration (IC50) is < 300 nM.

`Cc1ncc(Cl)cc1C(=O)N[C@H]1CC[C@H](Cn2c(=O)n(-c3ccc4c(c3)cc(C(N)=O)n4C)c3ccccc32)CC1` [Example 403, 5-(3-(((1r,4r)-4-(5-chloro-2-methylnicotinamido)cyclo-hexyl)methyl)-2-oxo-2,3-dihydro-1H-benzo[d]imidazol-1-yl)-1-methyl-1H-indole-2-carboxamide]: the IC50 is < 300 nM.

As to `CNC(=O)c1cc2cc(-n3c(=O)n(C[C@H]4CC[C@H](NC(=O)c5cc(Cl)cnc5C)CC4)c4ccccc43)ccc2n1C` [Example 404, 5-(3-(((1r,4r)-4-(5-chloro-2-methylnicotinamido)cyclo-hexyl)methyl)-2-oxo-2,3-dihydro-1H-benzo[d]imidazol-1-yl)-N,1-dimethyl-1H-indole-2-carboxamide], the IC50 was < 300 nM.

Consider `Cc1ncc(Cl)cc1C(=O)N[C@H]1CC[C@H](Cn2c(=O)n(-c3ccc4c(c3)cc(C(=O)N(C)C)n4C)c3ccccc32)CC1` [Example 405, 5-(3-(((1r,4r)-4-(5-chloro-2-methylnicotinamido)cyclo-hexyl)methyl)-2-oxo-2,3-dihydro-1H-benzo[d]imidazol-1-yl)-N,N,1-trimethyl-1H-indole-2-carboxamide], for which the IC50 is < 300 nM.

Regarding `Cn1cnc2ccc(-n3c(=O)n(C[C@H]4CC[C@H](NC(=O)c5cc(Cl)cnc5C(F)F)CC4)c4ccccc43)cc21` [Example 406, 5-chloro-2-(difluoromethyl)-N-((1r,4r)-4-((3′-methyl-2-oxo-3′H-[1,5′-bibenzo[d]imidazol]-3(2H)-yl)methyl)cyclohexyl) nicotinamide], the 50% inhibitory concentration (IC50) was < 300 nM.

As for `O=C(N[C@H]1CC[C@H](Cn2c(=O)n(-c3ccc4nccnc4c3)c3ccccc32)CC1)c1cc(Cl)cnc1C(F)(F)F` [Example 407, 5-chloro-N-((1r,4r)-4-((2-oxo-3-(quinoxalin-6-yl)-2,3-dihydro-1H-benzo[d]imidazol-1-yl)methyl)cyclohexyl)-2-(trifluoromethyl)nicotinamide], the IC50 is < 300 nM.

In the case of `Cc1ncc(Cl)cc1C(=O)N[C@H]1CC[C@H](Cn2c(=O)n(-c3cnc4[nH]ccc4c3)c3ccccc32)CC1` [Example 408, 5-chloro-2-methyl-N-((1r,4r)-4-((2-oxo-3-(1H-pyrrolo[2,3-b]pyridin-5-yl)-2,3-dihydro-1H-benzo[d]imidazol-1-yl)methyl)cyclohexyl)nicotinamide], the IC50 was < 300 nM.

`Cc1ncc(Cl)cc1C(=O)N[C@H]1CC[C@H](Cn2c(=O)n(-c3cnc4c(c3)c(C)cn4C)c3ccccc32)CC1` [Example 409, 5-chloro-N-((1r,4r)-4-((3-(1,3-dimethyl-1H-pyrrolo[2,3-b]pyridin-5-yl)-2-oxo-2,3-dihydro-1H-benzo[d]imidazol-1-yl)methyl)cyclohexyl)-2-methylnicotinamide]: the IC50 was < 300 nM.

Consider `O=C(NCCF)c1ccc(-n2c(=O)n(C[C@H]3CC[C@H](NC(=O)c4cc(Cl)cnc4C(F)(F)F)CC3)c3ccccc32)cn1` [Example 410, 5-(3-(((1r,4r)-4-(5-chloro-2-(trifluoromethyl)nicotinamido)cyclohexyl)methyl)-2-oxo-2,3-dihydro-1H-benzo[d]imidazol-1-yl)-N-(2-fluoroethyl) picolinamide], for which the IC50 is < 300 nM.

Take `O=C(NCC(F)F)c1ccc(-n2c(=O)n(C[C@H]3CC[C@H](NC(=O)c4cc(Cl)cnc4C(F)(F)F)CC3)c3ccccc32)cn1` [Example 411, 5-(3-(((1r,4r)-4-(5-chloro-2-(trifluoromethyl)nicotinamido)cyclohexyl)methyl)-2-oxo-2,3-dihydro-1H-benzo[d]imidazol-1-yl)-N-(2,2-difluoroethyl) picolinamide]: the IC50 is < 300 nM.

Take `Cc1ncc(Cl)cc1C(=O)N[C@H]1CC[C@H](Cn2c(=O)n(-c3ccc(SCCO)nc3)c3ccccc32)CC1` [Example 412, 5-chloro-N-((1r,4r)-4-((3-(6-((2-hydroxyethyl)thio)pyridin-3-yl)-2-oxo-2,3-dihydro-1H-benzo[d]imidazol-1-yl)methyl)cyclohexyl)-2-methylnicotinamide]: the IC50 was < 300 nM.

As to `Cc1ncc(Cl)cc1C(=O)N[C@H]1CC[C@H](Cn2c(=O)n(-c3cncc(N4CCOCC4)c3)c3ccccc32)CC1` [Example 413, 5-chloro-2-methyl-N-((1r,4r)-4-((3-(5-morpholinopyridin-3-yl)-2-oxo-2,3-dihydro-1H-benzo[d]imidazol-1-yl)methyl)cyclohexyl)nicotinamide], the IC50 is < 300 nM.

Consider `O=C(N[C@H]1CC[C@H](Cn2c(=O)n(-c3ccn4cncc4c3)c3ccccc32)CC1)c1cc(Cl)cnc1C(F)F` [Example 415, 5-chloro-2-(difluoromethyl)-N-((1r,4r)-4-((3-(imidazo[1,5-a]pyridin-7-yl)-2-oxo-2,3-dihydro-1H-benzo[d]imidazol-1-yl)methyl)cyclohexyl)nicotinamide], for which the IC50 is < 300 nM.

With `COCCOc1ccc(-n2c(=O)n(C[C@H]3CC[C@H](NC(=O)c4cc(Cl)cnc4C(F)(F)F)CC3)c3ccccc32)cn1` [Example 416, 5-chloro-N-((1r,4r)-4-((3-(6-(2-methoxyethoxy)pyridin-3-yl)-2-oxo-2,3-dihydro-1H-benzo [d]imidazol-1-yl)methyl)cyclo-hexyl)-2-(trifluoromethyl) nicotinamide], the IC50 was < 300 nM.

Take `COCCOc1ccc(-n2c(=O)n(C[C@H]3CC[C@H](NC(=O)c4cc(Cl)cnc4C)CC3)c3ccccc32)cn1` [Example 417, 5-chloro-N-((1r,4r)-4-((3-(6-(2-methoxyethoxy)pyridin-3-yl)-2-oxo-2,3-dihydro-1H-benzo[d]imidazol-1-yl)methyl)cyclohexyl)-2-methylnicotinamide]: the IC50 was < 300 nM.

For `O=C(N[C@H]1CC[C@H](Cn2c(=O)n(-c3cncc4ccccc34)c3ccccc32)CC1)c1cc(Cl)cnc1C(F)F` [Example 418, 5-chloro-2-(difluoromethyl)-N-((1r,4r)-4-((3-(isoquinolin-4-yl)-2-oxo-2,3-dihydro-1H-benzo [d]imidazol-1-yl)methyl)cyclo-hexyl)nicotinamide], the IC50 was < 300 nM.
